The source of these data is publication PMC5047629, “Synthesis, Pharmacological Profile and Docking Studies of New Sulfonamides Designed as Phosphodiesterase-4 Inhibitors” (PLoS ONE, 2016).

As a reminder, the IC50 is the point on the concentration scale where inhibition reaches its midpoint. Higher therefore signals weaker potency in that assay.

Data set [1] relates to A/J mice. Description: Murine model of asthma with 4 weekly OVA provocations (days 14, 21, 28, 35), interventional treatment. It counts as in vivo. The conditions noted are these: LASSBio-448 100 mg/Kg oral. The protocol: Sensitization was performed by means of a subcutaneous injection of 50 μg ovalbumin (OVA) (grade V; Sigma-Aldrich, St. Louis, MO) adsorbed to 5 mg of Al(OH)3 in 0.2 mL of sterile 0.9% NaCl (saline) at days 0 and 14. Intranasal OVA provocations (25 μg /25 μL saline) were performed at 19 and 20 days post-sensitization under isofluorane volatile anaesthesia (Cristalia, São Paulo, Brazil). Alternatively, sensitization as described above were done at days 0 and 7, while the OVA provocations were carried out at days 14, 21, 28 and 35 [39]. Negative control groups were represented by sensitized mice in which allergen was replaced by saline as a challenge. Treatments were done orally 1 h before provocations. Test compounds were dissolved in saline containing 0.2% Tween 80. All solutions were freshly prepared immediately before use. Analyses were performed 24 h after the last provocation.
(§1) Airflow and transpulmonary pressure were recorded with a Buxco pulmonary mechanics processing system (Buxco Electronics, Sharon, CT), which calculated resistance (cmH2O.s/ml) and dynamic lung compliance (mL/cmH2O) in each breath cycle. Elastance was calculated as the inverse of compliance values. Mice were anesthetized with nembutal (60 mg/kg), and the neuromuscular activity was blocked with bromide pancuronium (1 mg/kg). Animals were allowed to stabilize for 5 min and increasing concentrations of methacholine (3–27 mg/mL) were aerosolized for 5 min each. Baseline pulmonary parameters were assessed with aerosolized phosphate buffer solution (PBS).
The EPO activity present in lung tissue was determined with a colorimetric assay as described by Strath et al. (1985), with minor modifications. Briefly, the lungs were cannulated and perfused with saline/EDTA (20 mM). Then, lung samples were homogenized in buffer solution containing 0.5% HBSS (Hank´s balanced solution, pH 7.4; Sigma Chemical Co.) using a tissue homogenizer (T25 ultra-Tirrax). Samples were centrifuged at 1300 xg for 10 min at 4°C. Red blood cells were removed by hypotonic and hypertonic lysis. The suspended cells were then centrifuged again at 1300 xg for 10 min at 4°C. The pellet was then suspended in a solution of HBSS containing 0.5% of HTAB (hexadecyltrimethylamonium bromide; Sigma Chemical Co.) (pH 7.4). This suspension was subjected to heat shock for lysing the cells in three cycles freeze/thawed. At the end, the supernatants were collected, centrifuged at 12000 rpm for 15 min at 4°C and assayed spectrophotometrically for EPO determination. Fifty μl of the samples were placed, and then 50 μl of the substrate (1.5 mM o-phenylenediamine and 6.6 mM hydrogen peroxide in 0.05 mM Tris-HCl buffer, pH 8.0) was added and, after a 30 min incubation at room temperature, 50 μl of H2SO4 (4M) was added to stop the reaction. The optical density reading was performed on the SpectraMax M5 spectrophotometer (Molecular Devices) at a wavelength of 492 nm.
Right lungs tissue samples from saline- and OVA-exposed mice were homogenized in PBS containing 0.05% Triton X-100 and a protease inhibitor cocktail (Complete®, Hoffmann-La Roche Ltd, Basel, Switzerland). After centrifugation at 13000xg for 10 min and 4°C, the levels of IL-13, IL-5, IL-4 and eotaxin-2 were quantified in the supernatant, using commercially available ELISA kits (DuoSet; R&D Systems, Minneapolis, MN, USA). The results were expressed as picograms of cytokine per right lung.

Data set [2] relates to A/J mice. Description: Duration of xylazine/ketamine anesthesia (behavioral correlate of emesis). Type of data set: in vivo. The protocol:
This assessment was carried out as previously reported. […] The animals were placed in dorsal position and their spontaneous return to the prone position was used as an endpoint to determine anesthesia duration.

Data set [3] relates to A/J mice. The data set can be described thus: LPS-induced lung inflammation and airway hyper-reactivity. Type of data set: in vivo. The conditions noted are these: LASSBio-448 2.5 and 10 mg/kg oral, cilomilast 1 mg/kg oral, 1 h before LPS, 24 h post-challenge. On the procedure: A/J mice were anesthetized with isoflurane aerosol and then challenged with LPS (25μg/25 μL) or phosphate buffered solution (PBS) by intranasal instillation as reported. The analyses were performed 24 h after stimulation. Treatment with LASSBio-448 (2.5–10 mg/kg/mice) or cilomilast (1 mg/kg) was performed orally, 1 h before LPS exposure. LASSBio-448 was dissolved in 0.2% Tween 80, while cilomilast was dissolved in 1 M NaOH and further neutralized with 1 N HCl, before adjusting the final volume with 0.9% NaCl solution (saline). The substances were dissolved immediately before use.
as §1
The MPO activity present in the lung tissue was colorimetrically determined as described by Hirano (1996), with minor changes. Briefly, after lung perfusion with 20 mM EDTA in 0.9% saline, lung samples were homogenized in Hank´s balanced solution (HBSS) at pH 7.4. The homogenates were centrifuged for 10 min at 1300 xg and 4°C. Red blood cells were removed by hypotonic and hypertonic lysis and suspended cells were re-centrifuged as described above. The pellet was then suspended in HBSS at pH 7.4 containing 0.5% hexadecyltrimethyl ammonium bromide (HTAB). The homogenates were centrifuged for 30 min at 12500 xg and 4°C. The supernatants were then collected and incubated with 0.167 mg/mL of ortho-dianisidine dihydrochloride for 15 min at 37°C, after which 0.0006% H2O2 in 50 mM phosphate buffer at pH 6 was added. The reaction was stopped 10 min later by adding 50 μL of 1% sodium azide. The measurement was done at 460 nm using the SpectraMax M5 microplate reader (Molecular Devices).

In data set [4] the test system is PDE3. The data set can be described thus: PDE3 activity inhibition. Type of data set: biochemical.
Where [5] appears, read: rolipram 10 mg/Kg oral, right lung, 24 h after last challenge, vs vehicle, Fig 8.

For the compound `COc1ccc(C2CNC(=O)C2)cc1OC1CCCC1` (centres unmarked) [1 (Rolipram), rolipram, reference compound], the “airway hyper-reactivity to methacholine, airway resistance” value in data set [1] (rolipram 10 mg/Kg oral, Fig 7A) was “equally effective in inhibiting”. Further, in data set [1] (rolipram 10 mg/Kg oral, Fig 7B), the “airway hyper-reactivity to methacholine, lung elastance” value is listed as “equally effective in inhibiting”. In addition, in data set [1] (setting [5]), the “IL-4 level in lung tissue” value was “reduction in the levels”, the “IL-5 level in lung tissue” value was “reduction in the levels”, the “IL-13 level in lung tissue” value is given as “reduction in the levels” and the “eotaxin-2 level in lung tissue” value was “reduction in the levels”. Also, the “allergen-induced eosinophil accumulation in the lung tissue (eosinophil peroxidase)” value in data set [1] (rolipram 10 mg/kg oral, at third and fourth weeks of challenge, Fig 5) is reported as “impair the progress”. Besides, the “reduction of sleep time (duration of xylazine/ketamine anesthesia)” value in data set [2] (3.5 μmol/Kg oral) came to 30%. The “reduction of sleep time (duration of xylazine/ketamine anesthesia)” value in data set [2] (11 μmol/Kg oral) was determined as 38.5%. The “reduction of sleep time (duration of xylazine/ketamine anesthesia)” value in data set [2] (36 μmol/Kg oral) is recorded as 40.8%.
`COc1ccc([C@]2(C#N)CC[C@@H](C(=O)O)CC2)cc1OC1CCCC1` [cilomilast, reference compound]: in data set [2] (5.8 μmol/kg oral, n = 5, P<0.01), the “reduction of sleep time (duration of xylazine/ketamine anesthesia)” value is 28.4%. Further, the “LPS-induced airway hyper-reactivity (lung elastance after methacholine 3–27 mg/ml)” value in data set [3] (Fig 9A) is recorded as “blockade”. Besides, the “neutrophil infiltration into the lung tissue (MPO activity)” value in data set [3] (Fig 9B) is “blockade”.
In turn, `Cc1[nH]c(=O)c(C#N)cc1-c1ccncc1` [milrinone, reference compound] returned an IC50 in data set [4] of 3.2 µM. This counts as single-digit micromolar.
